The values below come from patent US3936463A, “Benzomorphanes” (priority 1972, dated 1976).

One data set can be described thus: in vivo. The note with it: rat, sc. As to the method: (§1) The numbering of the compounds is the same as the numbering of the preparative examples. […] The ED50 and LD50 were calculated relative to the base.
A further data set deals with rat tails. Description: animal or person. Conditions: for ED50: Rattus norvegicus, sc, read-out: Analgesic action in heat radiation test on rat tails, ED 50; for Therapeutic index LD 50 / ED 50 / Analgesic action in heat radiation test on rat tails, ED 50: rats, s.c.; for Therapeutic index LD 50 / ED 50: calculated from LD 50 and ED 50; for Analgesic action in heat radiation test on rat tails, ED 50: calculated relative to the base. As to the method: as §1

Data set [1] relates to Morphine-dependent rats. The data set can be described thus: Morphine replacement action (elimination of withdrawal symptoms) in morphine-dependent rats. Type of data set: in vivo, rat. Conditions: grade, scale not defined. As to the method:
as §1

The subject of data set [2] is Morphine-dependent rats. The data set can be described thus: Morphine-antagonistic action (provocation of withdrawal symptoms) in morphine-dependent rats. The note with it: grade, scale not defined. Type of data set: in vivo, rat. As to the method: as §1
Data set [3] relates to Morphine-dependent monkeys. Description: Morphine-antagonistic action (provocation of withdrawal symptoms) in morphine-dependent monkeys. Type of data set: in vivo, monkey. Conditions: grade, scale not defined. As to the method:
as §1

Data set [4] deals with Morphine-dependent monkeys. The data set can be described thus: Morphine-replacement action (elimination of withdrawal symptoms) in morphine-dependent monkeys. The note with it: grade, scale not defined. Type of data set: in vivo, monkey. The method, then: as §1

The molecule `CCC12CCN(CC3CC3)C(Cc3ccc(OCCCCOC(C)=O)cc31)C2C` (stereo not drawn) [Example 9, 2-Cyclopropylmethyl-5-ethyl-9-methyl-2'-[4-acetoxybutoxy-(1)]-6,7-benzomorphan] displayed a median lethal dose (LD50) in the data set “in vivo” greater than 500 mg/kg. For the same molecule, in the data set on rat tails, the ED50 is 0.61 mg/kg and the “Therapeutic index LD 50 / ED 50” value was greater than 820. In addition, the “Morphine replacement action (elimination of withdrawal symptoms)” value (“Morphine replacement action” below) in the data set on Morphine-dependent rats [1] is recorded as 0-1. The “Morphine-antagonistic action (provocation of withdrawal symptoms)” value (shortened to “Morphine-antagonistic action”) with Morphine-dependent rats [2] turned out to be 1.

As for `CCC12CCN(CC3CC3)C(Cc3ccc(OCC(C)CCOC(C)=O)cc31)C2C` (stereo not drawn) [Example 17, 2-Cyclopropylmethyl-5-ethyl-9-methyl-2'-[4-acetoxy-2-methylbutoxy-(1)]-6,7-benzomorphan], the “Analgesic action in heat radiation test on rat tails, ED 50” value (“Analgesic action in heat radiation test” below) in the data set on rat tails is given as 0.96 mg/kg. For the same molecule, in data set [3], the “Morphine-antagonistic action” value was found to be 2.

As to `CCOC(=O)C1(c2ccccc2)CCN(C)CC1` [Pethidine, reference compound], the 50% lethal dose (LD50) in “in vivo” was 113 mg/kg. In the data set on rat tails, the ED50 worked out at 5.7 mg/kg and the “Therapeutic index LD 50 / ED 50” value is 20.

With `CCC12CCN(CC3CC3)C(Cc3ccc(OC(C)(C)COC(C)=O)cc31)C2C` (stereo not drawn) [Example 11, 2-Cyclopropylmethyl-5-ethyl-9-methyl-[1-acetoxy-2-methyl-propoxy-(2)]-6,7-benzomorphan], the ED50 in the data set with rat tails came to 0.47 mg/kg. Also, the “Morphine-antagonistic action” value in data set [3] came out at 1.

In “in vivo”, `CCC12CCN(CC3CC3)C(Cc3ccc(OCCCOC(=O)C(C)C)cc31)C2C` (stereo not drawn) [Example 2b, 2-Cyclopropylmethyl-5-ethyl-9-methyl-2'-[3-isobutyryloxy-propoxy-(1)]-6,7-benzomorphan] showed an LD50 of roughly 300 mg/kg. Also, in the data set with rat tails, the ED50 stood at 1 mg/kg and the “Therapeutic index LD 50 / ED 50” value is listed as ~ 300. Moreover, the “Morphine replacement action” value in the data set with Morphine-dependent rats [1] was 0. Besides, the “Morphine-antagonistic action” value in the data set with Morphine-dependent rats [2] amounted to 1.

As for `C/C=C/C(=O)OCC(C)COc1ccc2c(c1)C1(CC)CCN(CC3CC3)C(C2)C1C` (stereo not drawn) [Example 6b, 2-Cyclopropylmethyl-5-ethyl-9-methyl-2'-[3-crotonoyloxyisobutoxy-(1)]-6,7-benzomorphan], the ED50 in the data set on rat tails turned out to be 0.31 mg/kg. Also, in data set [3], the “Morphine-antagonistic action” value worked out at 3.

Take `CCC12CCN(CC3CC3)C(Cc3ccc(OCC(C)COC(C)=O)cc31)C2C` (stereo not drawn) [Example 6a, 2-Cyclopropylmethyl-5-ethyl-9-methyl-2'-[3-acetoxyisobutoxy-(1)]-6,7-benzomorphan]: the ED50 with rat tails is 0.42 mg/kg. Further, the “Morphine-antagonistic action” value in data set [3] turned out to be 3.

As for `CCC12CCN(CC3CC3)C(Cc3ccc(OCCCOC(=O)C(C)(C)C)cc31)C2C` (stereo not drawn) [Example 4a, 2-Cyclopropylmethyl-5-ethyl-9-methyl-2'-[3-pivaloyloxy-propoxy-(1)]-6,7-benzomorphan], the LD50 in the data set “in vivo” was greater than 500 mg/kg. In addition, in the data set on rat tails, the ED50 was found to be 0.97 mg/kg and the “Therapeutic index LD 50 / ED 50” value is listed as greater than 515. In the data set with Morphine-dependent rats [1], the “Morphine replacement action” value stood at 0. In the data set with Morphine-dependent rats [2], the “Morphine-antagonistic action” value amounted to 1.

For the molecule `CCOC(=O)N(C)C(=O)OCCCOc1ccc2c(c1)C1(CC)CCN(CC3CC3)C(C2)C1C` (stereo not drawn) [Example 23, 2-cyclopropylmethyl-5-ethyl-9-methyl-2'-[3-N-ethoxycarbonyl-N-methyl-carbamoyloxypropoxy-(1)]-6,7-benzomorphan], the ED50 in the data set on rat tails worked out at 1.2 mg/kg. The “Morphine-antagonistic action” value in data set [3] came out at 2.

`CCC(=O)OCCC(C)COc1ccc2c(c1)C1(CC)CCN(CC3CC3)C(C2)C1C` (stereo not drawn) [Example 18]: the “Analgesic action in heat radiation test” value in the data set on rat tails is listed as 1.36 mg/kg. Moreover, the “Morphine-antagonistic action” value in data set [3] amounted to 2.

`CCC(=O)OCCCOc1ccc2c(c1)C1(CC)CCN(CC3CC3)C(C2)C1C` (stereo not drawn) [Example 2a, 2-Cyclopropylmethyl-5-ethyl-9-methyl-2'-[3-propionyloxy-propoxy-(1)]-6,7-benzomorphan] returned an LD50 in the data set “in vivo” of 296 mg/kg. Further, the ED50 with rat tails came to 0.49 mg/kg. Besides, in the data set on rat tails, the “Therapeutic index LD 50 / ED 50” value is 604. Moreover, the “Morphine-replacement action (elimination of withdrawal symptoms)” value (shortened to “Morphine-replacement action”) in data set [4] turned out to be 0. The “Morphine-antagonistic action” value (in data set [3]; in the data set on Morphine-dependent rats [2]) was 2 each time. In addition, the “Morphine replacement action” value in the data set on Morphine-dependent rats [1] is recorded as 0.

Regarding `CC(=O)OCCCOc1ccc2c(c1)C1(C)CCN(CC3CC3)C(C2)C1C` (stereo not drawn) [Example 7, 2-Cyclopropylmethyl-5,9-dimethyl-2'-[3-acetoxypropoxy-(1)]-6,7-benzomorphan], the LD50 in the data set “in vivo” was roughly 400 mg/kg. Also, in the data set with rat tails, the ED50 was determined as 1.6 mg/kg and the “Therapeutic index LD 50 / ED 50” value is on record as ~ 258. Moreover, in the data set on Morphine-dependent rats [1], the “Morphine replacement action” value turned out to be 0. Also, the “Morphine-antagonistic action” value in the data set on Morphine-dependent rats [2] amounted to 1.

Take `CN1CC[C@]23c4c5ccc(O)c4O[C@H]2[C@@H](O)C=C[C@H]3[C@H]1C5` [Morphine, reference compound]: the “Analgesic action in heat radiation test” value in the data set with rat tails is listed as 1.78 mg/kg.

`CCC12CCN(CC3CC3)C(Cc3ccc(OCCCOC(C)=O)cc31)C2C` (stereo not drawn) [Example 1, 2-Cyclopropylmethyl-5-ethyl-9-methyl-2'-[3-acetoxypropoxy-(1)]-6,7-benzomorphan]: the LD50 in the data set “in vivo” is 352 mg/kg. For the same molecule, in the data set with rat tails, the ED50 worked out at 0.42 mg/kg and the “Therapeutic index LD 50 / ED 50” value is given as 838. In data set [4], the “Morphine-replacement action” value is on record as 0. In addition, the “Morphine-antagonistic action” value in data set [3] is reported as 1-2. Besides, the “Morphine replacement action” value with Morphine-dependent rats [1] was found to be 0. In the data set on Morphine-dependent rats [2], the “Morphine-antagonistic action” value stood at 2.

In “in vivo”, `CCC(=O)OCCCCOc1ccc2c(c1)C1(CC)CCN(CC3CC3)C(C2)C1C` (stereo not drawn) [Example 10a] yielded an LD50 greater than 500 mg/kg. In the data set with rat tails, the ED50 came out at 0.62 mg/kg and the “Therapeutic index LD 50 / ED 50” value was greater than 806. Moreover, the “Morphine replacement action” value in the data set with Morphine-dependent rats [1] stood at 0. The “Morphine-antagonistic action” value with Morphine-dependent rats [2] stood at 2.

Consider `CCC12CCN(CC3CC3)C(Cc3ccc(OCCCOC(=O)c4ccccc4)cc31)C2C` (stereo not drawn) [Example 4e, 2-Cyclopropylmethyl-5-ethyl-9-methyl-2'-[3-benzoyloxy-propoxy-(1)]-6,7-benzomorphan], for which, in the data set with rat tails, the ED50 was determined as 0.42 mg/kg. Also, in data set [3], the “Morphine-antagonistic action” value worked out at 2.

On to `CCC12CCN(CC3CC3)C(Cc3ccc(OCCCOC(=O)COc4ccccc4)cc31)C2C` (stereo not drawn) [Example 21a, 2-Cyclopropylmethyl-5-ethyl-9-methyl-2'-[3-phenoxyacetoxypropoxy-(1)]-6,7-benzomorphan], for which, in the data set on rat tails, the ED50 worked out at 1.2 mg/kg. For the same molecule, the “Morphine-antagonistic action” value in data set [3] was 2.

As to `COc1ccc2c3c1O[C@H]1[C@@H](O)C=C[C@H]4[C@@H](C2)N(C)CC[C@@]341` [Codeine, reference compound], the 50% lethal dose (LD50) in “in vivo” came to 202 mg/kg. Besides, in the data set with rat tails, the ED50 amounted to 4.5 mg/kg and the “Therapeutic index LD 50 / ED 50” value was 51. Besides, the “Morphine-replacement action” value in data set [4] was 3. Also, in the data set on Morphine-dependent rats [1], the “Morphine replacement action” value came to 3. Besides, the “Morphine-antagonistic action” value in the data set on Morphine-dependent rats [2] was found to be 0.

In the case of `CCC12CCN(CC3CC3)C(Cc3ccc(OCCCOC(=O)c4cccnc4)cc31)C2C` (stereo not drawn) [Example 20], in the data set with rat tails, the ED50 amounted to 1.2 mg/kg. Further, in data set [3], the “Morphine-antagonistic action” value is on record as 1.

Take `CC(C)=CCN1CCC2(C)c3cc(O)ccc3CC1C2C` (stereo not drawn) [Pentazocine, reference compound]: in “in vivo”, the LD50 stood at 140 mg/kg. Also, in the data set with rat tails, the ED50 stood at 4.8 mg/kg and the “Therapeutic index LD 50 / ED 50” value is 29. The “Morphine-antagonistic action” value in data set [3] is listed as 2. In addition, the “Morphine replacement action” value with Morphine-dependent rats [1] turned out to be 1. Further, the “Morphine-antagonistic action” value in the data set with Morphine-dependent rats [2] is given as 2.

`CCC12CCN(CC3CC3)C(Cc3ccc(OCCCCOC(=O)C(C)C)cc31)C2C` (stereo not drawn) [Example 10b, 2-Cyclopropylmethyl-5-ethyl-9-methyl-2'-[4-isobutyryloxybutoxy-(1)]-6,7-benzomorphan] displayed an LD50 in the data set “in vivo” greater than 500 mg/kg. Further, in the data set on rat tails, the ED50 is 0.42 mg/kg and the “Therapeutic index LD 50 / ED 50” value is recorded as > 1,190. For the same molecule, in the data set with Morphine-dependent rats [1], the “Morphine replacement action” value was found to be 0. Further, in the data set on Morphine-dependent rats [2], the “Morphine-antagonistic action” value amounted to 1.

For the molecule `CCC(=O)OCCCOc1ccc2c(c1)C1(C)CCN(CC3CC3)C(C2)C1C` (stereo not drawn) [Example 8, 2-Cyclopropylmethyl-5-9-dimethyl-2'-[3-propionyloxypropoxy-(1)]-6,7-benzomorphan], in “in vivo”, the LD50 is roughly 425 mg/kg. In addition, in the data set on rat tails, the ED50 came to 1.6 mg/kg and the “Therapeutic index LD 50 / ED 50” value is ~ 262. Moreover, in the data set with Morphine-dependent rats [1], the “Morphine replacement action” value was 1. Moreover, the “Morphine-antagonistic action” value in the data set with Morphine-dependent rats [2] is reported as 1.

Consider `C/C=C/C(=O)OCCCOc1ccc2c(c1)C1(CC)CCN(CC3CC3)C(C2)C1C` (stereo not drawn) [Example 4d, 2-Cyclopropylmethyl-5-ethyl-9-methyl-2'-[3-crotonoyloxy-propoxy-(1)]-6,7-benzomorphan], for which, in the data set with rat tails, the ED50 was 0.35 mg/kg. In addition, the “Morphine-antagonistic action” value was found to be 3 in data set [3] and 2 with Morphine-dependent rats [2]. The “Morphine replacement action” value with Morphine-dependent rats [1] is listed as 0.
